{"source": "patent US20110112101A1", "about": "“TREATMENT FOR OCULAR-RELATED DISORDERS” (SANOFI-AVENTIS, priority 2009, published 2011)", "tested_on": "laser induced plaque on the retina (model of wet AMD)", "assay": "laser induced model of macular degeneration in the rat", "assay_type": "in vivo", "conditions": "for % Inhibition of Plaque: krypton laser injury of retina", "protocol": "Several models of wet AMD are available in the rodent and rabbit. The pre-clinical efficacy of the compound of Formula I was assessed in a laser induced model of macular degeneration in the rat. In this model, injury is induced on the retina of the rat by a focused laser beam. This injury results in vascularization and inflammation, and the subsequent formation of a plaque on the retina that is associated with loss of vision. The ability of treatments with a compound of Formula Ito inhibit the size and thickness of such plaques serves as an indicator for the potential for the treatment of wet AMD patients. A krypton laser was used to irradiate the retina of a rat eye at 75 microns for 0.1 seconds, at each of 3-4 spots. From days 1 to 14, the irradiated rats were dosed twice a day with the compound of Formula I perorally (bid PO). Doses used were 3 mg/kg, 10 mg/kg, and 30 mg/kg body weight. An additional treatment group was given the vehicle for the oral compound, also bid PO administration. A positive control was used with 0.5 mg triamcinolone delivered to the intraocular subtendon. At 14 days after such irradiation, the rat was perfused with FITC-dextran (fluorescein isothiocyanate dextran) and the eyes were removed for evaluation. Evaluation was by fundoscopy and fluorescein angiography.", "data": [{"smiles": "CCc1c(-c2ccc(C(C)(C)O)cc2)[nH]c2nccnc12", "note": "[compound of Formula I, 2-[4-(7-Ethyl-5H-pyrrolo[2,3-b]pyrazin-6-yl)-phenyl]-propan-2-ol]", "values": [{"measurement": "% Inhibition of Plaque", "setting": "3 mg/kg bid PO days 1 to 14, evaluated at 14 days", "result": 12, "unit": "%"}, {"measurement": "% Inhibition of Plaque", "setting": "10 mg/kg bid PO days 1 to 14, evaluated at 14 days", "result": 36, "unit": "%"}, {"measurement": "% Inhibition of Plaque", "setting": "30 mg/kg bid PO days 1 to 14, evaluated at 14 days", "result": 33, "unit": "%"}, {"measurement": "plaque thickness", "setting": "laser induced model, 30 and 10 mg/kg bid PO", "result": "significantly reduced plaque thickness"}, {"measurement": "results compared with positive control triamcinolone", "setting": "laser induced model, 30 and 10 mg/kg bid PO versus 0.5 mg triamcinolone", "result": "significantly better"}]}, {"smiles": "C[C@]12C=CC(=O)C=C1CC[C@H]1[C@@H]3C[C@@H](O)[C@](O)(C(=O)CO)[C@@]3(C)C[C@H](O)[C@@]12F", "note": "[triamcinolone, reference compound]", "values": [{"measurement": "% Inhibition of Plaque", "setting": "positive control 0.5 mg delivered to the intraocular subtendon, evaluated at 14 days", "result": 26, "unit": "%"}]}]}
